Values quoted from earlier work, collected in patent US11752221B2, “Brush-arm star polymer imaging agents and uses thereof” (priority 2017, dated 2023).
Values joined by “and” are separate entries in the source; they are usually repeats but may differ in a detail not shown here. Identical values can stand only once. Like-named read-outs stand apart in the source and are kept apart here.

Assays:
[1] = earlier studies
[2] = 0.2 mM nitroxide, 4.0 mM Asc
subcutaneous C26 tumors = conditions: 0.23 mmol Gd/kg iv dose, after 4 hours

Structure (SMILES) | r1 (per-chex for chex polymers) [1] | Initial kinetics (<1 h) k × 10^4 ([2]; 0.0 mM GSH, data used IPH) | Initial kinetics (<1 h) k′ × 10^4 ([2]; 0.0 mM GSH, data used IPH) | Initial kinetics Avg k × 10^4 ([2]; 0.0 mM GSH, data used IPH) | Initial kinetics (<1 h) k × 10^4 ([2]; 0.0 mM GSH, data used PH) | Initial kinetics (<1 h) k′ × 10^4 ([2]; 0.0 mM GSH, data used PH) | Initial kinetics Avg k × 10^4 ([2]; 0.0 mM GSH, data used PH) | Late kinetics (>1 h) k × 10^4 ([2]; 0.0 mM GSH, data used PH) | Late kinetics (>1 h) k′ × 10^4 ([2]; 0.0 mM GSH, data used PH) | Initial kinetics (<1 h) k × 10^4 ([2]; 5.0 mM GSH, data used IPH) | Initial kinetics (<1 h) k′ × 10^4 ([2]; 5.0 mM GSH, data used IPH) | Initial kinetics Avg k × 10^4 ([2]; 5.0 mM GSH, data used IPH) | Initial kinetics (<1 h) k × 10^4 ([2]; 5.0 mM GSH, data used PH) | Initial kinetics (<1 h) k′ × 10^4 ([2]; 5.0 mM GSH, data used PH) | Initial kinetics Avg k × 10^4 ([2]; 5.0 mM GSH, data used PH) | contrast enhancement of tumor (subcutaneous C26 tumors)
CC1(C)CC(C(=O)O)C(C)(C)N1[O] (stereo not shown) [3-CP, 3-carboxy-2,2,5,5-tetramethyl-1-pyrrolidinyloxy] | 0.14 mM⁻¹ s⁻¹ | 636.8 M^−1 s^−1 and 624.5 M^−1 s^−1 and 614.8 M^−1 s^−1 | 2.547 s^−1 and 2.498 s^−1 and 2.459 s^−1 | 625 ± 22 M^−1 s^−1 | 636.0 M^−1 s^−1 and 599.0 M^−1 s^−1 and 597.3 M^−1 s^−1 | 2.504 s^−1 and 2.396 s^−1 and 2.389 s^−1 | 611 ± 44 M^−1 s^−1 | 295 M^−1 s^−1 | 1.18 s^−1 | 608.8 M^−1 s^−1 and 609.6 M^−1 s^−1 and 605.6 M^−1 s^−1 | 2.435 s^−1 and 2.438 s^−1 and 2.423 s^−1 | 608.0 ± 4.2 M^−1 s^−1 | 590.3 M^−1 s^−1 and 602.4 M^−1 s^−1 and 615.2 M^−1 s^−1 | 2.361 s^−1 and 2.410 s^−1 and 2.461 s^−1 | 602.6 ± 25 M^−1 s^−1 | –
O=C([O-])CN(CCN(CC(=O)[O-])CC(=O)O)CCN(CC(=O)[O-])CC(=O)O.[Gd+3] [Gd-DTPA] | – | – | – | – | – | – | – | – | – | – | – | – | – | – | – | negligible contrast enhancement
